Measured values as given in ChEMBL document CHEMBL3507680, “University of Dundee, Gates Library screen for HepG2 cell viability”.

Assay: Human HepG2 cell viability assay in 384 well format
Type: toxicity, cell-based
Design: dose 125 nL, time 70.5 hour; concentration not given beside the values
Conditions: HepG2 cells, read-out: Inhibition

| Structure (SMILES) | cytotoxicity at 70.5 h [%] |
| --- | --- |
| CCC1c2ccccc2CCN1C(=O)c1ccnc(C(=O)OC)c1 (stereo not drawn) | -1.37 |
| CC(C)(C)c1ncc(C(=O)NCCNC(=O)c2ccc(O)cc2)s1 | -7.09 |
| CN1CCN(c2cnn(CCn3cccn3)c(=O)c2)CC1 | -3.04 |
| Cc1cccc(N2CC3(CCN(Cc4nccn4C)C3)CC2=O)c1 (stereo not drawn) | -8.56 |
| CC1CCCCN1c1nc2c(c(=O)[nH]1)CCN(Cc1cccnc1)C2 (stereo not drawn) | -3.39 |
| CC(C)c1nc(O)c2nnn(C[C@@H]3CCCN(Cc4cccs4)C3)c2n1 | 1.47 |
| CSCC[C@@H]1CN2CCC[C@H]2CN1Cc1coc2ccc(Cl)cc2c1=O | -5.47 |
| O=C(c1cnoc1)N1CCC[C@]2(C[C@H](Oc3ncccc3F)CO2)C1 | -3.55 |
| COc1ccc(CN2CCC3(CC2)CCN(CC(C)C)C3=O)cc1 | -10.6 |
| CN(C)C(=O)N1CC(=O)NCC12CCN(C(=O)c1ccco1)C2 (stereo not drawn) | -7.28 |
| Cc1cc(C)n(CC2CN(Cc3nnsc3Cl)CCO2)n1 (stereo not drawn) | -13 |
| Fc1cccc(-c2nc(CN3CCOC(Cn4cccn4)C3)co2)c1 (stereo not drawn) | -11.5 |
| COc1ccc(NC(=O)C(C)n2cncn2)cn1 (stereo not drawn) | -2.08 |
| CSCCc1c(-c2ccccc2)ncn1[C@H]1C[C@@H](C(=O)O)N(C)C1 | -13.3 |
| Cc1nn(C)c(Cl)c1C1CCCN1C(=O)CCNc1ncccn1 (stereo not drawn) | -2.34 |
| COCC1CN(Cc2ccc(C)o2)Cc2cn(C)nc21 (stereo not drawn) | 3.14 |
| O=S(=O)(c1c(Cl)nc2sccn12)N1CCC2(CCNCC2)C1 | -6.41 |
| O=C(Cc1cccnc1)N1CCCC2(CCN(C3CCOCC3)C2)C1 (stereo not drawn) | 9.18 |
| CN(C)C(=O)CO[C@@H]1CN(Cc2ccccc2F)[C@@H]2CCCO[C@@H]21 | -6.14 |
| Cc1ncc(C(=O)N2CCCC(n3nc(C)nc3C)C2)c(C(C)C)n1 (stereo not drawn) | -4.64 |
| COCCCNC(=O)CCn1nc(C)c2ccccc21 | -2.16 |
| Cc1ccc(C(=O)N2CCc3ncnc(C)c3CC2)cn1 | -4.87 |
| O=C1CC(CNc2cncc(Cl)n2)c2ccccc2N1 (stereo not drawn) | -2.03 |

| Structure (SMILES) | cytotoxicity at 70.5 h [%] |
| --- | --- |
| CC(=O)N1Cc2ccccc2CC1C(=O)Nc1ccc(C)cn1 (stereo not drawn) | -15.7 |
| O=C(C1CCOCC1)N1CC[C@@H](O)[C@@H]1Cc1ccncc1 | -0.548 |
| Cc1ccc(C(=O)NS(=O)(=O)c2cc(Br)ccc2C)c(=O)[nH]1 | -7.4 |
| CNS(=O)(=O)c1ccc(CNC(=O)c2cc(C)no2)cc1 | -11.9 |
| CCOc1cccc(C2CC(=O)NCc3nc(N(C)C)sc32)c1 (stereo not drawn) | -5.3 |
| CC(C)N(C)Cc1cnc2n1CCN(Cc1cccc(F)c1)C2 | -4.8 |
| O=C(Cn1cc(C2CC2)nn1)N(Cc1ccco1)Cc1cccs1 | -2.55 |
| COCc1ccccc1C(=O)NS(=O)(=O)CCCC#N | -3.12 |
| Cc1nc(C)n(CC2CCCN2CCCOc2ccc(F)cc2)n1 (stereo not drawn) | 6.79 |
| O=C1CC(NS(=O)(=O)N2CCOCC2)CN1Cc1ccc(F)cc1 (stereo not drawn) | -2.75 |
| CCC(C)N(Cc1c[nH]c(C)n1)Cc1ccccc1Cl (stereo not drawn) | -8.23 |
| CC(NCc1ccccn1)c1ccc(N2CCN(C)CC2)c(F)c1 (stereo not drawn) | 11.1 |
| Cc1ccc(N2CCc3ncnc(C4CC4)c3CC2)nn1 | 21.3 |
| O=C(NC1=NCCCN1c1ccc(Cl)cc1)c1cccc(Cl)c1 | 9.24 |
| Cc1nc2cc(C3CCN(Cc4ccccc4F)C3)nn2c(O)c1C (stereo not drawn) | -3.81 |
| O=C1CC[C@@H](CN(Cc2ccncc2)Cc2nc(-c3cccs3)no2)N1 | -3.48 |
| CCn1cc(CN2CCCn3nc(CNC(=O)C4CCC4)cc3C2)cn1 | -9 |
| CC(C)N(C)Cc1cncc2c1CCN(C(=O)c1cccc(C#N)c1)C2 | -4.95 |
| CCn1nnc2c1C(COCCN(C)C)CN(c1nncs1)C2 (stereo not drawn) | 31.1 |
| COCCN(CC1CCCN(C2Cc3ccccc3C2)C1)C(=O)CO (stereo not drawn) | -10 |
| Cn1cc(N2CC3(CCN(Cc4ccsc4)CC3)OCC2=O)cn1 | 13.1 |
| O=C(Nc1nc2c(s1)CN(S(=O)(=O)C1CC1)CC2)C1CC1 | 27 |
| CNC(=O)CCNC(=O)c1ccccc1N1CCOCC1 | -4.86 |

| Structure (SMILES) | cytotoxicity at 70.5 h [%] |
| --- | --- |
| O=c1c(NCCCO)c(N2CCN(c3ccccc3)CC2)c1=O | -2.43 |
| COc1cccc(S(=O)(=O)CCN2CCCCC2)c1 | -15.7 |
| CCCc1n[nH]c(C2CN(Cc3ncc[nH]3)CCO2)n1 (stereo not drawn) | 4.94 |
| Cc1nc(-c2cccc(N3CCC(NC4CCOCC4)CC3)c2)cs1 | -3.92 |
| CCc1nnc(CN2CCC(C3CCCCCN3C(C)=O)CC2)o1 (stereo not drawn) | 8.88 |
| CN(Cc1ccc(Cl)cc1)C(=O)Nc1cnn(CC(N)=O)c1 | 8.79 |
| O=C1CCCCCN1CCC(=O)N1CCCC(c2ccn[nH]2)C1 (stereo not drawn) | -9.01 |
| Cn1cccc1C(=O)NCc1cn2c(n1)CN(S(=O)(=O)C1CC1)CC2 | -10.3 |
| COCCOc1ccc(CNC2CCc3ncnn3C2)cc1OC (stereo not drawn) | -9.82 |
| CC(C)(C)NC(=O)NC(=O)CNc1c(F)cccc1N1CCCC1 | -5.38 |
| Cc1cccc(NC(=O)c2cncc(C3CCNCC3)n2)n1 | -5.87 |
| O=C(CCNC(=O)C1CCCC1)NCc1cccnc1-n1cncn1 | -9.48 |
| O=C(NCc1nncn1-c1ccccc1)C1CCCCC1 | -0.117 |
| COCCS(=O)(=O)NC(C)c1ccccc1Cl (stereo not drawn) | -2.47 |
| CS(=O)(=O)N1CCCC(C(=O)Nc2cnn(Cc3ccc(Cl)cc3)c2)C1 (stereo not drawn) | 0.541 |
| Cc1nc(CNC(=O)N(Cc2ccccc2)CC(C)(C)O)oc1C | -3.06 |
| Cc1cc(CN(C)Cc2ncc(C(C)(C)C)o2)no1 | 18.2 |
| CN1CC2(CCC1=O)CCN(CC[C@@H](O)c1ccccc1)CC2 | 19.6 |
| CCC(C)(C)C(=O)N1CCN(C2=NCC(C)S2)CC1 (stereo not drawn) | -8.95 |
| CCCNC(=O)NC(=O)CNC(C)(C)c1ccc2c(c1)OCO2 | -0.993 |
| Cc1noc([C@H]2CC[C@@H]3[C@@H](CCN3c3ncccn3)O2)n1 | -6.01 |
| Cc1ccc(C)c(OC(C)C(=O)NCCNc2cccnc2)c1 (stereo not drawn) | -0.127 |
| CN(CCc1ccccc1)c1cnn(C)c(=O)c1Br | -15.5 |

| Structure (SMILES) | cytotoxicity at 70.5 h [%] |
| --- | --- |
| Cc1cc(NCc2ccc(N3CCNC(=O)C3)cc2)nc(C)n1 | -1.91 |
| Cc1nc(NCc2scnc2-c2ccccc2)cc(C2CCNCC2)n1 | -6.26 |
| Cc1noc(C)c1C(=O)N1CCC2(CC(N(C)c3ccncn3)C2)C1 (stereo not drawn) | -6.65 |
| O=C(N1CCCC(n2cncn2)C1)C1(c2cccc(F)c2)CCCC1 (stereo not drawn) | 16.5 |
| Cc1cc(C)c(CNC(=O)N2CCCC2c2ccc(F)cc2)c(=O)[nH]1 (stereo not drawn) | -6.72 |
| O=C(c1ccccc1)N1CCOC2(CCN(Cc3cccs3)CC2)C1 | 12.2 |
| COC(=O)c1cccc(C(=O)NCc2ccc3c(c2)CCCN3C)c1 | -3.61 |
| Cc1ccc(CN2C[C@H]3C[C@H](C(=O)NCc4cccnc4)[C@@H](C2)O3)o1 | -8.69 |
| COCc1nc(CNC2CCCc3c2cnn3C(C)(C)C)cs1 (stereo not drawn) | -6.43 |
| COCCO[C@H]1CCN(C(=O)c2ccsc2)[C@H]1Cc1cnn(C)c1 | -11.9 |
| CN(C)CCOc1ccccc1N1CCN(C(=O)c2ccoc2)CC1 | 2.2 |
| CCn1ccnc1CN1CCCN(C(=O)c2cc(Cl)c[nH]2)CC1 | -12.8 |
| CSCc1cc(F)ccc1CNCc1cccc(O)c1 | -5.38 |
| Cc1nc(CN2CCCN(CC(=O)Nc3cccnc3)CC2)no1 | 7.78 |
| CC(=O)c1c(C)nn(CC(=O)Nc2ccc(Br)cc2)c1C | 4.72 |
| N#CCCCOc1cccnc1NC(=O)CC1CCCCC1 | 39.8 |
| CN1C(=O)CCc2cc(NC(=O)C3CC3)ccc21 | 10.6 |
| Cc1nc(C)n(CC2CCCN(Cc3ccc4c(c3)OCCO4)C2)n1 (stereo not drawn) | -1.48 |
| CC(C)NC(=O)[C@H]1C[C@@H]2[C@@H](C1)OCCN2Cc1cccs1 | -2.88 |
| Cn1cc(C2CCCN2C(=O)Cn2ccc3ccc(Cl)cc32)cn1 (stereo not drawn) | 12.2 |
| CC(CCN1CCCC1=O)NCc1cnc(C2CCC2)s1 (stereo not drawn) | -6.2 |
| OCCOc1cc(F)ccc1NCc1nc(-c2ccoc2)no1 | 8.3 |
| Cn1cc(-c2csc(N3CCN(C(=O)OC(C)(C)C)CC3)n2)cn1 | -2.04 |

| Structure (SMILES) | cytotoxicity at 70.5 h [%] |
| --- | --- |
| COc1ccccc1N1CCN(C(=O)Cn2nc(C)cc2C)CC1(C)C | -14.1 |
| Cc1c[nH]c(CN2CCC3(CCCN(Cc4ccc(F)c(F)c4)C3)C2)n1 (stereo not drawn) | 0.269 |
| COc1ccc2c(ccn2CC(=O)N2CCCC2Cn2cccn2)c1 (stereo not drawn) | 3.03 |
| CNC(=O)c1cccnc1N1CCN(Cc2ccccc2)C(CCO)C1 (stereo not drawn) | -14.9 |
| Cc1nnsc1C(=O)N1CCN(CC2CC2)[C@@H]2CS(=O)(=O)C[C@@H]21 | -13.8 |
| CC(=O)N(C)Cc1ncn2c1CN(C(=O)C1CCCO1)CCC2 (stereo not drawn) | -5.86 |
| CNC(=O)[C@@H](C1CCCCC1)N1CCC[C@H]1C(=O)NCCN1CCCC1 | 3.4 |
| CCC(CO)NC(=O)c1cc(COc2ccc(OC)cc2Cl)[nH]n1 (stereo not drawn) | -10.5 |
| OC1CCN(c2ccnc(NCCc3ccccc3Cl)n2)C1 (stereo not drawn) | -3.46 |
| O=C(c1ccccc1F)N1CCCC1Cn1c(=O)oc2ccccc21 (stereo not drawn) | -0.201 |
| CCn1cc(-c2nn3c(C(F)(F)F)nnc3s2)cn1 | -16.2 |
| CC(C)c1nsc(N2CCCOCC2)n1 | 37.7 |
| CCc1nc(C)c(CC(=O)N2CCC3(CC2)OCCCC3OC)c(=O)[nH]1 (stereo not drawn) | -6.31 |
| NC(=O)CN1CCCC(c2cncc(Nc3ncccn3)n2)C1 (stereo not drawn) | -6.48 |
| COCCc1noc(C2CCN(S(=O)(=O)c3cccs3)CC2)n1 | 10.6 |
| O=C(NCc1cnc2n1CCN(CC1CC1)CC2)C1CCC1 | -8.49 |
| CC(C)(C)CC(=O)Nc1cnn(-c2ccccc2S(C)(=O)=O)c1 | -5.49 |
| Cc1nc(C)n(CC2CCCN(Cc3cc(C#N)ccc3F)C2)n1 (stereo not drawn) | 0.508 |
| Cc1ccc2nc(CN3CCN(C4CCCC4)C(=O)C3)cc(O)c2c1 | 9.29 |
| Cc1ccc(C(=O)N(CC(=O)O)CC(C)C)cc1F | -7.92 |
| Cc1n[nH]c(C2CN(Cc3nnc(C4CCC4)o3)CCO2)n1 (stereo not drawn) | -1.02 |
